Laboratory results from BindingDB's records for doi:10.1021/jm0490641 (Boehringer Ingelheim Pharma, 2005).

Biological target: Calcitonin gene-related peptide receptor (Callithrix jacchus)
Assay: Affinity against calcitonin gene related peptide receptor (1 uM) in marmoset tissue homogenates using [125I]CGRP as radioligand after 180 minutes of incubation at pH 7.40
Settings: pH 7.4

NCCCC[C@@H](NC(=O)[C@H](Cc1cc(Br)c(O)c(Br)c1)NC(=O)N1CCC(n2c(=O)[nH]c3ccccc32)CC1)C(=O)N1CCN(c2ccncc2)CC1 [4-(2-Oxo-2,3-dihydro-benzoimidazol-1-yl)-piperidine-1-carboxylic acid [(S)-1-[(R)-5-amino-1-(4-pyridin-4-yl-piperazine-1-carbonyl)-pentylcarbamoyl]-2-(3,5-dibromo-4-hydroxy-phenyl)-ethyl]-amide]
IC50: 2.7 nM
